# Measured values as given in US8501911B2, “Methods of reducing inflammation and mucus hypersecretion” (Biomarck Pharmaceuticals, Ltd, priority 1999, dated 2013).
# Residues, ends and D or L forms follow the SMILES beside them. *: point of attachment. Myristoyl = CCCCCCCCCCCCCC(=O)*
# Columns and labels:
# [1] = tested on: human neutrophils; assay: Human neutrophil chemotactic migration assay; format: cell-based; details: test peptide 50 μM; for Neutrophil Migration (% Inhibition), LTB4: LTB4 100 nM; for Neutrophil Migration (% Inhibition), LTB4 / Neutrophil Migration (% Inhibition), fMLP: 0 = inactive; for Neutrophil Migration (% Inhibition), PAF: PAF 100 nM; for Neutrophil Migration (% Inhibition), fMLP: fMLP 100 nM
# Experimental: Human neutrophils were isolated from heparinized whole blood collected from healthy adult donors via cephalic venipuncture by a slightly modified method as described by Akasaki et al., 1999 (Akasaki T, Koga H, and Sumimoto H., Phosphoinositide 3-kinase-dependent and -independent activation of the small GTPase Rac2 in human neutrophils, J. Biol. Chem. 274:18055-18059, 1999). The blood was mixed with dextran (final concentration 1.4% dextran) and then allowed to settle for 60 minutes, after which time the leukocyte rich plasma was collected and layered onto 5 mL of Ficoll-Paque PLUS in 15 ml, conical tubes. The plasma was centrifuged at 1800 rpm for 20 minutes at room temperature. The residual erythrocytes were lysed utilizing a hypotonic saline and the remaining neutrophils were re-suspended in Hank's balanced salt solution containing 20 mM HEPES and 8.9 mM sodium bicarbonate without calcium or magnesium (HBSS), yielding neutrophils that were greater than 98% pure and greater than 99% viable.
# Neutrophil migration assay was performed according to the method described by Frevert C W, Wong V A, Goodman R B, Goodwin R, and Martin T R., Rapid fluorescence-based measurement of neutrophil migration in vitro, J. Immunol. Methods, 213:41-52, 1998. Human neutrophils were labeled with the fluorescent dye calcein for 30 minutes at room temperature. Cells were then washed and resuspended in a migration buffer containing HBSS with 2% FCS. Cells were treated with buffer alone or with the indicated test peptide (50 μM) for 30 minutes at 37° C. Treated cells (1×10^4 cells) were then placed on the upper side of a ChemoTx® chemotaxis plate (Neuroprobe, Gaithersburg, Md.) membrane (2 μm pore size). Lower wells of the plate were filled with migration buffer alone or with buffer containing fMLP (100 nM), LTB4 (100 nM), or PAF (100 nM). Wells containing 1×10^4 labeled cells were used as standards to calculate migration percentage. Cells were allowed to migrate for 1 hour at 37° C. After incubation, cells on the top of the filter were washed away with PBS. Followed by this, 0.5 mM EDTA was added to the top of the filter for 5 min to detach adherent cells and the membrane was again washed. The plate was then centrifuged at 1000 rpm for 1 min. The filter was removed and the fluorescence was measured in the lower wells (485 nm excitation, 530 nm emission wavelength) using an fMax fluorescence plate reader (Molecular Devices, Sunnyvale, Calif.). Percent migration was determined by dividing the fluorescence of each well by the fluorescence of the standard wells containing 1×10^4 labeled cells. A lesser number of migrated neutrophils in the bottom compartment is indicative of the test peptide being an inhibitor of inflammation.
# [2] = tested on: human neutrophils; assay: Inhibition of release of myeloperoxidase (MPO) from PMA-stimulated human neutrophils; format: cell-based; details: at 100 μM of test peptide; 100 nM PMA
# Source text: Human neutrophil isolation: Human neutrophils were isolated according to a slightly modified method previously described by Akasaki T, Koga H, and Sumimoto H., Phosphoinositide 3-kinase-dependent and -independent activation of the small GTPase Rac2 in human neutrophils, J. Biol. Chem. 274:18055-18059, 1999. Alternatively, human neutrophils were isolated as previously described (see Takashi S, OkuboY, Horie S. Contribution of CD54 to human eosinophil and neutrophil superoxide production. J. Appl. Physiol. 91:613-622, 2001) with slight modifications. Briefly, heparinized venous blood was obtained from normal healthy human volunteers, diluted with RPMI-1640 (Cellgro; Mediatech, Inc., Herndon, Va.) at a ratio of 1:1, layered onto a Histopaque (density, 1.077 g/ml; Sigma-Aldrich Co., St. Louis, Mo.), and centrifuged at 400 g for 20 min at 4° C. The supernatant and mononuclear cells at the interface were carefully removed, and erythrocytes in the sediment were lysed in chilled distilled water. Isolated granulocytes were washed twice with Hanks' balanced salts solution (HBSS) and resuspended in HBSS on ice. The neutrophils used for the experiments were of >98% purity with <2% contamination by eosinophils, and the viability was >99% as determined by Trypan blue dye exclusion.
# Measurement of released MPO activity: Purified human neutrophils suspended in HBSS were aliquoted at 4×10^6 cells/ml in 15 ml tubes and preincubated with either 50 or 100 μM of test peptide (dissolved in PBS, pH 7.0) for 10 min at 37° C. […] Secretions were quantified by using as a standard, human MPO.
# MPO activity in the cell supernatant was assayed using tetramethylbenzidine (TMB) based on a previously established technique (Paige L, Mahmudi-Azer S, Bablitz B, Hage S C, Velazquez J R, Man S F P, and Moqbel R. Rapid Mobilization of intracellularly stored RANTES in response to Interferon-γ in human eosinophils. Blood, 94:23-32, 1999). […] The reaction was terminated by addition of 50 μl of 1M H2SO4 and absorbance was read at 450 nm in a spectrophotometric microplate reader (Molecular Devices, Sunnyvale, Calif.).
# [3] = Solubility in 0.5 N saline; format: physicochemical; details: in 0.5 N Saline at pH 6.5
Compound,"Neutrophil Migration (% Inhibition), LTB4 [1] [%]","Neutrophil Migration (% Inhibition), PAF [1] [%]","Neutrophil Migration (% Inhibition), fMLP [1] [%]",% Inhibition MPO [2] [%],solubility [3] [µg/mL]
CCCCCCCCCCCCCC(=O)NCC(=O)N[C@@H](C)C(=O)N[C@@H](CCC(N)=O)C(=O)N[C@@H](Cc1ccccc1)C(=O)N[C@@H](CO)C(=O)N[C@@H](CCCCN)C(=O)N[C@H](C(=O)N[C@@H](C)C(=O)N[C@@H](C)C(=O)N[C@@H](CCCCN)C(=O)NCC(=O)N[C@@H](CCC(=O)O)C(=O)N[C@@H](C)C(=O)N[C@@H](C)C(=O)N[C@@H](C)C(=O)N[C@@H](CCC(=O)O)C(=O)N[C@@H](CCCNC(=N)N)C(=O)N1CCC[C@H]1C(=O)NCC(=O)N[C@@H](CCC(=O)O)C(=O)N[C@@H](C)C(=O)N[C@@H](C)C(=O)N[C@H](C(=O)N[C@@H](C)C(=O)O)C(C)C)[C@@H](C)O [MANS peptide] (Myristoyl-GAQFSKTAAKGEAAAERPGEAAVA-OH; C-terminus assumed),91.8,86.4,90.0,31.2,< 5000
"CCCCCCCCCCCCCC(=O)NCC(=O)N[C@H](C(=O)N[C@@H](C)C(=O)N1CCC[C@H]1C(=O)N[C@@H](C)C(=O)N[C@@H](C)C(=O)N[C@@H](CCC(=O)O)C(=O)NCC(=O)N[C@@H](C)C(=O)NCC(=O)N[C@@H](C)C(=O)N[C@@H](CCC(=O)O)C(=O)N[C@H](C(=O)N[C@@H](CCCCN)C(=O)N[C@@H](CCCNC(=N)N)C(=O)N[C@@H](C)C(=O)N[C@@H](CO)C(=O)N[C@@H](C)C(=O)N[C@@H](CCC(=O)O)C(=O)N[C@@H](C)C(=O)N[C@@H](CCCCN)C(=O)N[C@@H](CCC(N)=O)C(=O)N[C@@H](C)C(=O)N[C@@H](Cc1ccccc1)C(=O)O)C(C)C)[C@@H](C)O [RNS peptide, reference compound] (Myristoyl-GTAPAAEGAGAEVKRASAEAKQAF-OH; C-terminus assumed)",0,62.1,0.7,0,> 15000
"CCCCCCCCCCCCCC(=O)NCC(=O)N[C@@H](C)C(=O)N[C@@H](CCC(N)=O)C(=O)N[C@@H](Cc1ccccc1)C(=O)N[C@@H](CO)C(=O)N[C@@H](CCCCN)C(=O)N[C@H](C(=O)N[C@@H](C)C(=O)N[C@@H](C)C(=O)N[C@@H](CCCCN)C(=O)NCC(=O)N[C@@H](CCC(=O)O)C(=O)O)[C@@H](C)O [SEQ ID NO: 13, N-myristoyl-GAQFSKTAAKGE] (Myristoyl-GAQFSKTAAKGE-OH; C-terminus assumed)",82.7,85.7,81.8,43.2,> 2000
"CCCCCCCCCCCCCC(=O)NCC(=O)N[C@@H](C)C(=O)N[C@@H](CCC(N)=O)C(=O)N[C@@H](Cc1ccccc1)C(=O)N[C@@H](CO)C(=O)N[C@@H](CCCCN)C(=O)N[C@H](C(=O)N[C@@H](C)C(=O)N[C@@H](C)C(=O)N[C@@H](CCCCN)C(=O)O)[C@@H](C)O [SEQ ID NO: 15, N-myristoyl-GAQFSKTAAK] (Myristoyl-GAQFSKTAAK-OH; C-terminus assumed)",85.5,87.2,88.6,,> 10000
